Data taken from patent US4032659A (priority 1975, dated 1977).
“Also recorded” adds a separate entry of the source. Like-named read-outs stand apart in the source and are kept apart here.

What was measured:
Herpes virus [1] = assay type: in vivo, mouse; conditions: oral
Herpes virus [2] = test: Herpes virus in eggs (chick embryo survival); assay type: in vivo, chicken eggs; conditions: for No. Living Longer Than Controls, total: all doses; for Deaths on day 1 / Deaths on day 3 / Deaths on day 4 / Total Deaths 4th Day / Deaths on day 2: 12 eggs
[3] = tested on: Influenza Ann Arbor virus; test: Chemoprophylaxis of Influenza Ann Arbor (A1) virus infection in mice; assay type: in vivo, mouse
Influenza PR 8 virus = test: Chemoprophylaxis of Influenza PR 8 virus infection in mice; assay type: in vivo, mouse
Mengo virus = Mengo virus infection in mice; assay type: in vivo, mouse; conditions: oral
Excerpt: The results are illustrated in Table 43.

Vaccinia virus [4] = assay type: in vivo; conditions: scarified rabbit skin
Vaccinia virus [5] = assay type: cell-based, fertile eggs; conditions: various concentrations
virus infections = test: Antiviral screening program, several viruses; conditions: mouse, in vivo
Neurovaccinia virus = test: Neurovaccinia (intracerebral) in mice; conditions: mouse, in vivo
Influenza A PR8 virus = tested on: Influenza A PR8 virus; parameters: dose or concentration left out as unconfirmed; conditions: cited from earlier work
[6] = tested on: Influenza B Massachusetts virus; test: Chemoprophylaxis of Influenza B Massachusetts virus infection in mice; assay type: in vivo, mouse; conditions: oral
Procedure: The activity of four compounds on Influenza B Mass. was tested in mice.
A portion of a commercially available sample of amantadine was recrystallized from isopropanol. The activity of the material against Influenza B Mass. was tested for the sample as obtained, the recrystallized portion, and the mother liquor obtained from recrystallizing the portion.

Columbia SK Polio virus = conditions: mouse, in vivo

SMILES: NNC(N)=S [Thiosemicarbazide, thiosemicarbazide]
- No. animals surviving when 19/20 controls are dead (Herpes virus [1]; total dose 5 μg): 0
- No. animals surviving when 17/20 controls are dead (Herpes virus [1]; total dose .000005 μg): 0
- No. animals surviving when 17/20 controls are dead (Herpes virus [1]; total dose .00005 μg): 3
- Survivors (Herpes virus [1]; total dose .00005 μg): 3
- No. animals surviving after 7 days (Herpes virus [1]; total dose .0005 μg): 6
- No. animals surviving when 17/20 controls are dead (Herpes virus [1]; total dose .0005 μg): 0
- No. animals surviving after 7 days (Herpes virus [1]; total dose .005 μg): 6
- No. animals surviving when 17/20 controls are dead (Herpes virus [1]; total dose .05 μg): 0
- No. Living Longer Than Controls, total (Herpes virus [2]): 7
- Deaths on day 1 (Herpes virus [2]; dose 2 μg): 3
- Deaths on day 3 (Herpes virus [2]; dose 2 μg): 5
- Deaths on day 4 (Herpes virus [2]; dose 2 μg): 3
- Total Deaths 4th Day (Herpes virus [2]; dose 2 μg): 12
- Deaths on day 2 (Herpes virus [2]; dose 20 μg): 4
- Deaths on day 3 (Herpes virus [2]; dose 20 μg): 6
- Total Deaths 4th Day (Herpes virus [2]; dose 20 μg): 12
- Deaths on day 1 (Herpes virus [2]; dose .00005 μg): 2
- Deaths on day 2 (Herpes virus [2]; dose .00005 μg): 5
- Deaths on day 3 (Herpes virus [2]; dose .00005 μg): 2
- Total Deaths 4th Day (Herpes virus [2]; dose .00005 μg): 10
- Deaths on day 1 (Herpes virus [2]; dose .0005 μg): 2
- Deaths on day 2 (Herpes virus [2]; dose .0005 μg): 3
- Deaths on day 3 (Herpes virus [2]; dose .0005 μg): 2
- Deaths on day 4 (Herpes virus [2]; dose .0005 μg): 3
- Total Deaths 4th Day (Herpes virus [2]; dose .0005 μg): 10
- Deaths on day 1 (Herpes virus [2]; dose .005 μg): 4
- Deaths on day 2 (Herpes virus [2]; dose .005 μg): 3
- Deaths on day 3 (Herpes virus [2]; dose .005 μg): 3
- Total Deaths 4th Day (Herpes virus [2]; dose .005 μg): 10
- Deaths on day 2 (Herpes virus [2]; dose .05 μg): 3
- Deaths on day 3 (Herpes virus [2]; dose .05 μg): 5
- Total Deaths 4th Day (Herpes virus [2]; dose .05 μg): 9
- Deaths on day 1 (Herpes virus [2]; dose .5 μg): 3
- Deaths on day 2 (Herpes virus [2]; dose .5 μg): 4
- Deaths on day 3 (Herpes virus [2]; dose .5 μg): 2
- Deaths on day 4 (Herpes virus [2]; dose .5 μg): 2
- Total Deaths 4th Day (Herpes virus [2]; dose .5 μg): 11
- Survivors ([3]; oral, total dose .5 μg): 0
- protection (Influenza PR 8 virus; intraperitoneal): almost no protection
- Survivors (Influenza PR 8 virus; intraperitoneal, total dose 5 μg): 0
- Survivors (Influenza PR 8 virus; intraperitoneal, total dose .005 μg): 0
- Survivors (Influenza PR 8 virus; intraperitoneal, total dose .05 μg): 0
- Survivors (Influenza PR 8 virus; intraperitoneal, total dose .5 μg): 0
- Survivors (Influenza PR 8 virus; oral, total dose .005 μg): 3
- Survivors (Influenza PR 8 virus; oral, total dose .5 μg): 0
- Survivors (Influenza PR 8 virus; subcutaneous, total dose 5 μg): 3
- Survivors (Influenza PR 8 virus; subcutaneous, total dose .0005 μg): 0
- Survivors (Influenza PR 8 virus; subcutaneous, total dose .005 μg): 0
- Survivors (Mengo virus; total dose .0000005 μg): 0
- No. animals surviving after 6 days (Mengo virus; total dose .000005 μg): 2
- Survivors (Mengo virus; total dose .000005 μg): 1
- No. animals surviving after 6 days (Mengo virus; total dose .00005 μg): 5
- Survivors (Mengo virus; total dose .00005 μg): 1
- Survivors (Mengo virus; total dose .0005 μg): 0
- Survivors (Mengo virus; total dose .005 μg): 0
- effect on pox formation (Vaccinia virus [4]): highly significant diminution in the vaccinia pox formation
- effect on pox formation on the membrane (Vaccinia virus [5]): No effect on pox formation on the membrane could be observed
- activity (in words) (virus infections): active against Influenza PR 8, Vaccinia in the mouse tail, Mengo virus, Herpes virus in mice and eggs, Influenza virus, and Vaccinia virus in rabbits
- surviving animals (three instances, single dose level) (Neurovaccinia virus): one

SMILES: CC(C=NNC(=N)N)=NNC(=N)N [methyl-GAG, Methylgloxal-bis-guanylhydrazone]
- inhibition (Influenza A PR8 virus; lower limit): Ninety
- Toxicity (Influenza A PR8 virus; upper limit): toxic

SMILES: NNC(N)=O [semicarbazide]
- Survivors (Herpes virus [1]; total dose .000005 μg): 0
- Survivors (Herpes virus [1]; total dose .5 μg): 0
- No. Living Longer Than Controls, total (Herpes virus [2]): 10
- total number of survivors ([3]; oral, four dose levels): 10
- Survivors ([3]; subcutaneous, total dose .05 μg): 0
- Survivors (Influenza PR 8 virus; oral, total dose .000005 μg): 0
- No. animals surviving when 18/20 of controls are dead (Influenza PR 8 virus; oral, total dose .00005 μg): 0
- Survivors (Influenza PR 8 virus; oral, total dose .00005 μg): 0
- No. animals surviving when 18/20 of controls are dead (Influenza PR 8 virus; oral, total dose .0005 μg): 0
- Survivors (Influenza PR 8 virus; oral, total dose .0005 μg): 0
- No. animals surviving when 18/20 of controls are dead (Influenza PR 8 virus; oral, total dose .005 μg): 0
- Survivors (Influenza PR 8 virus; oral, total dose .005 μg): 0
- No. animals surviving when 18/20 of controls are dead (Influenza PR 8 virus; oral, total dose .05 μg): 4
- Survivors (Influenza PR 8 virus; oral, total dose .05 μg): 4
- No. animals surviving when 100% controls are dead ([6]; total dose .000005 μg): 0
- Survivors ([6]; total dose .000005 μg): 0
- No. animals surviving when 100% controls are dead ([6]; total dose .00005 μg): 0
- Survivors ([6]; total dose .00005 μg): 0
- No. animals surviving when 100% controls are dead ([6]; total dose .0005 μg): 1
- Survivors ([6]; total dose .0005 μg): 0
- No. animals surviving after 5 days ([6]; total dose .005 μg): 6
- Survivors ([6]; total dose .005 μg): 0
- No. animals surviving after 5 days ([6]; total dose .05 μg): 6
- No. animals surviving when 100% controls are dead ([6]; total dose .05 μg): 1
- Survivors ([6]; total dose .05 μg): 0
- No. animals surviving after 5 days ([6]; total dose .5 μg): 4
- No. animals surviving when 100% controls are dead ([6]; total dose .5 μg): 1
- Survivors ([6]; total dose .5 μg): 0
- effect on pox formation on the membrane (Vaccinia virus [5]): No effect on pox formation on the membrane could be observed

SMILES: CCC(C)=NNC(N)=S [thiosemicarbazone]
- protection against death (Influenza PR 8 virus; drinking water 24 h pre- and 24 h post-infection): significantly protected against death
- statistically significant geometric mean survival time (Columbia SK Polio virus): two instances of a statistically significant geometric mean survival time
- effect on pox formation (Vaccinia virus [4]): dramatic reduction and even elimination of all pox formation over several dilutions; also recorded: highly significant diminution of pox formation
